Values quoted from earlier work, collected in US20250212890A1, “COMBINATIONS OF AV3 MUTANT POLYPEPTIDES AND Bt TOXINS FOR PEST CONTROL” (Vestaron Corporation, priority 2022, published 2025).

Experiments:
[1] = test system: crustacean and insect sodium channels; details: Moran et al., Toxicon 2009
[2] = test system: mammalian sodium channels; details: Moran et al., Toxicon 2009

For Av3, the “selectivity for crustacean and insect sodium channels” value [1] is given as “high selectivity” and the “selectivity for mammalian sodium channels” value [2] is given as “low selectivity”.
